For assay [1], the system named is MDA-MB-231. The assay is described as follows: Cytotoxicity against human MDA-MB-231 cells assessed as reduction in cell viability incubated for 48 hrs by MTT assay. The format is functional, cell-based. To be noted: MDA-MB-231, 48 h. On the technique in general: Tetrazolium dyes change colour on reduction, which living cells bring about.
Assay [2] has as its system MDA-MB-231. The assay is described as follows: Induction of apoptosis in human MDA-MB-231 cells assessed as late apoptotic cells at 2 uM incubated for 24 hrs by Annexin-V/FITC and PI staining based flow cytometry analysis (reference value: 0.7%). It counts as functional. On the technique in general: A flow cytometer gives signals particle by particle.

Structures are written as SMILES.

As a reminder, the IC50 is the point on the concentration scale where inhibition reaches its midpoint. As for `COc1cc(/C=C/c2ccc(OCCCCCCC(=O)NO)cc2)cc(OC)c1`, the concentration for half-maximal inhibition (IC50) with MDA-MB-231 [1] came out at 0.78 µM. Further, the Activity in the assay on MDA-MB-231 [2] is reported as 5.7%.

(Values after ChEMBL document CHEMBL5154636, “Discovery of STAT3 and Histone Deacetylase (HDAC) Dual-Pathway Inhibitors for the Treatment of Solid Cancer” (J Med Chem, 2021).)
